Experiments:
Format in all cases: in vivo
[1] = tested on: wheat (Triticum aestivum); assay: Test C postemergence, visual plant response rating
Description: (§1) Seeds of plant species selected from barnyardgrass (Echinochloa crus-galli), kochia (Bassia scoparia), ragweed (common ragweed, Ambrosia artemisiifolia), Italian ryegrass (Lolium mutiflorum), foxtail, giant (giant foxtail, Setaria faberi), foxtail, green (green foxtail, Setaria viridis), and pigweed (Amaranthus retroflexus) were planted into a blend of loam soil and sand and treated preemergence with a directed soil spray using test chemicals formulated in anon-phytotoxic solvent mixture which included a surfactant.
(§2) At the same time, plants selected from these weed species and also wheat (Triticum aestivum), corn (Zea mays), blackgrass (Alopecurus myosuroides), and galium (catchweed bedstraw, Galium aparine) were planted in pots containing the same blend of loam soil and sand and treated with post emergence applications of test chemicals formulated in the same manner. Plants ranged in height from 2 to 10 cm and were in the one- to two-leaf stage for the postemergence treatment. Treated plants and untreated controls were maintained in a greenhouse for approximately 10 d, after which time all treated plants were compared to untreated controls and visually evaluated for injury. Plant response ratings, summarized in Table C, are based on a 0 to 100 scale where 0 is no effect and 100 is complete control. A dash (-)response means no test result.

[2] = tested on: ragweed (common ragweed, Ambrosia artemisiifolia); assay: Test C postemergence, visual plant response rating
Description: as §1, §2

[3] = tested on: blackgrass (Alopecurus myosuroides); assay: Test C postemergence, visual plant response rating
Description: as §1, §2

[4] = tested on: Italian ryegrass (Lolium mutiflorum); assay: Test C postemergence, visual plant response rating
Description: as §1, §2

[5] = tested on: barnyardgrass (Echinochloa crus-galli); assay: Test C postemergence, visual plant response rating
Description: as §1, §2

[6] = tested on: foxtail, giant (giant foxtail, Setaria faberi); assay: Test C postemergence, visual plant response rating
Description: as §1, §2

kochia (Bassia scoparia) [7] = assay: Test C postemergence, visual plant response rating
Description: as §1, §2

[8] = tested on: galium (catchweed bedstraw, Galium aparine); assay: Test C postemergence, visual plant response rating
Description: as §1, §2

corn (Zea mays) = assay: Test C postemergence, visual plant response rating
Description: as §1, §2

[9] = tested on: pigweed (Amaranthus retroflexus); assay: Test C postemergence, visual plant response rating
Description: as §1, §2

[10] = tested on: Italian ryegrass (Lolium mutiflorum); assay: Test C preemergence, visual plant response rating
Procedure, shortened: (§3)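 Compounds in a non-phytotoxic solvent with surfactant were applied as a directed soil spray preemergence or to 2–10 cm, one- to two-leaf plants postemergence, in loam–sand soil. After about 10 d in a greenhouse, injury was visually rated against untreated controls on a 0–100 scale (100 = complete control).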

[11] = tested on: barnyardgrass (Echinochloa crus-galli); assay: Test C preemergence, visual plant response rating
Procedure, shortened: as §3

[12] = tested on: foxtail, giant (giant foxtail, Setaria faberi); assay: Test C preemergence, visual plant response rating
Procedure, shortened: as §3

kochia (Bassia scoparia) [13] = assay: Test C preemergence, visual plant response rating
Procedure, shortened: as §3

[14] = tested on: pigweed (Amaranthus retroflexus); assay: Test C preemergence, visual plant response rating
Procedure, shortened: as §3

[15] = tested on: sedge umbrella (small-flower umbrella sedge, Cyperus difformis); assay: Test D flooded paddy test, visual plant response rating; settings: 250 g ai/ha, scale 0 to 100 (0 no effect, 100 complete control), 13 to 15 d
Description: (§4) Plant species in the flooded paddy test selected from rice (Oryza sativa), sedge umbrella (small-flower umbrella sedge, Cyperus difformis) duck salad (Heteranthera limosa), and barnyardgrass (Echinochloa crus-galli) were grown to the 2-leaf stage for testing. At time of treatment, test pots were flooded to 3 cm above the soil surface, treated by application of test compounds directly to the paddy water, and then maintained at that water depth for the duration of the test. Treated plants and controls were maintained in a greenhouse for 13 to 15 d, after which time all species were compared to controls and visually evaluated. Plant response ratings, summarized in Table D, are based on a scale of 0 to 100 where 0 is no effect and 100 is complete control. A dash (-) response means no test result.

[16] = tested on: barnyardgrass (Echinochloa crus-galli); assay: as above; settings: 250 g ai/ha, scale 0 to 100 (0 no effect, 100 complete control), 13 to 15 d
Description: as §4

rice (Oryza sativa) = assay: as above; settings: 250 g ai/ha, scale 0 to 100 (0 no effect, 100 complete control), 13 to 15 d
Description: as §4

[17] = tested on: duck salad (Heteranthera limosa); assay: as above; settings: 250 g ai/ha, scale 0 to 100 (0 no effect, 100 complete control), 13 to 15 d
Description: as §4

[18] = Test C, postemergence, 125 g ai/ha
[19] = Test C, 31 g ai/ha, 0 is no effect, 100 is complete control

Compound | Wheat plant response rating (0 to 100 scale) ([1]; Postemergence, 31 g ai/ha) | Wheat plant response rating (0 to 100 scale) [1, 18] | Ragweed plant response rating (0 to 100 scale) ([2]; Postemergence, 31 g ai/ha) | Ragweed plant response rating (0 to 100 scale) [2, 18] | Blackgrass plant response rating (0 to 100 scale) ([3]; Postemergence, 31 g ai/ha) | Blackgrass plant response rating (0 to 100 scale) [3, 18] | Ryegrass, Italian plant response rating (0 to 100 scale) ([4]; Postemergence, 31 g ai/ha) | Ryegrass, Italian plant response rating (0 to 100 scale) [4, 18] | Barnyardgrass plant response rating (0 to 100 scale) ([5]; Postemergence, 31 g ai/ha) | Barnyardgrass plant response rating (0 to 100 scale) [5, 18] | Foxtail, Giant plant response rating (0 to 100 scale) ([6]; Postemergence, 31 g ai/ha) | Foxtail, Giant plant response rating (0 to 100 scale) [6, 18] | Kochia plant response rating (0 to 100 scale) (kochia (Bassia scoparia) [7]; Postemergence, 31 g ai/ha) | Kochia plant response rating (0 to 100 scale) (kochia (Bassia scoparia) [7]; [18]) | Galium plant response rating (0 to 100 scale) ([8]; Postemergence, 31 g ai/ha) | Galium plant response rating (0 to 100 scale) [8, 18] | Corn plant response rating (0 to 100 scale) (corn (Zea mays); Postemergence, 31 g ai/ha) | Corn plant response rating (0 to 100 scale) (corn (Zea mays); [18]) | Pigweed plant response rating (0 to 100 scale) ([9]; Postemergence, 31 g ai/ha) | Pigweed plant response rating (0 to 100 scale) [9, 18] | also measured
C#CCO/N=C(\c1cc(Cl)cc(Cl)c1Cl)c1c(O)c(C)nn(C)c1=O [Compound 187] | 0 | 50 | 90 | 100 | 0 | 0 | 70 | 100 | 30 | 70 | 50 | 80 | 40 | 70 | 80 | 100 | 0 | 20 | 20 | 70 | Ryegrass, Italian plant response rating (0 to 100 scale) ([10]; 125 g ai/ha): 100; Ryegrass, Italian plant response rating (0 to 100 scale) [10, 19]: 40; Barnyardgrass plant response rating (0 to 100 scale) ([11]; 125 g ai/ha): 100; Barnyardgrass plant response rating (0 to 100 scale) [11, 19]: 70; Foxtail, Giant plant response rating (0 to 100 scale) ([12]; 125 g ai/ha): 100; Foxtail, Giant plant response rating (0 to 100 scale) [12, 19]: 80; Kochia plant response rating (0 to 100 scale) (kochia (Bassia scoparia) [13]; 125 g ai/ha): 90; Kochia plant response rating (0 to 100 scale) (kochia (Bassia scoparia) [13]; [19]): 0; Pigweed plant response rating (0 to 100 scale) ([14]; 125 g ai/ha): 90; Pigweed plant response rating (0 to 100 scale) [14, 19]: 60; Plant response rating, Sedge, Umbrella (Flood) [15]: 60; Plant response rating, Barnyardgrass (Flood) [16]: 35; Plant response rating, Rice (Flood) (rice (Oryza sativa)): 15; Plant response rating, Ducksalad (Flood) [17]: 75
CON=C(c1cc(Cl)cc(Cl)c1)c1c(O)c(C)nn(C)c1=O [Compound 188] | 10 | 50 | 60 | 100 | 40 | 30 | 80 | 100 | 30 | 60 | 40 | 90 | 80 | 100 | 100 | 100 | 0 | 30 | 80 | 90 | Ryegrass, Italian plant response rating (0 to 100 scale) ([10]; 125 g ai/ha): 100; Ryegrass, Italian plant response rating (0 to 100 scale) [10, 19]: 80; Barnyardgrass plant response rating (0 to 100 scale) ([11]; 125 g ai/ha): 100; Barnyardgrass plant response rating (0 to 100 scale) [11, 19]: 30; Foxtail, Giant plant response rating (0 to 100 scale) ([12]; 125 g ai/ha): 100; Foxtail, Giant plant response rating (0 to 100 scale) [12, 19]: 90; Kochia plant response rating (0 to 100 scale) (kochia (Bassia scoparia) [13]; 125 g ai/ha): 100; Kochia plant response rating (0 to 100 scale) (kochia (Bassia scoparia) [13]; [19]): 10; Pigweed plant response rating (0 to 100 scale) ([14]; 125 g ai/ha): 90; Pigweed plant response rating (0 to 100 scale) [14, 19]: 70; Plant response rating, Sedge, Umbrella (Flood) [15]: 85; Plant response rating, Barnyardgrass (Flood) [16]: 15; Plant response rating, Rice (Flood) (rice (Oryza sativa)): 0; Plant response rating, Ducksalad (Flood) [17]: 70
CON=C(c1cc(Cl)cc(Cl)c1)c1c(O)c(C)nn(C)c1=O [Compound 189] | 10 | 50 | 70 | 90 | 10 | 30 | 90 | 100 | 30 | 50 | 50 | 80 | 70 | 90 | 100 | 100 | 0 | 10 | 50 | 80 | Ryegrass, Italian plant response rating (0 to 100 scale) ([10]; 125 g ai/ha): 100; Ryegrass, Italian plant response rating (0 to 100 scale) [10, 19]: 90; Barnyardgrass plant response rating (0 to 100 scale) ([11]; 125 g ai/ha): 90; Barnyardgrass plant response rating (0 to 100 scale) [11, 19]: 20; Foxtail, Giant plant response rating (0 to 100 scale) ([12]; 125 g ai/ha): 90; Foxtail, Giant plant response rating (0 to 100 scale) [12, 19]: 20; Kochia plant response rating (0 to 100 scale) (kochia (Bassia scoparia) [13]; 125 g ai/ha): 40; Kochia plant response rating (0 to 100 scale) (kochia (Bassia scoparia) [13]; [19]): 0; Pigweed plant response rating (0 to 100 scale) ([14]; 125 g ai/ha): 100; Pigweed plant response rating (0 to 100 scale) [14, 19]: 70; Plant response rating, Sedge, Umbrella (Flood) [15]: 35; Plant response rating, Barnyardgrass (Flood) [16]: 0; Plant response rating, Rice (Flood) (rice (Oryza sativa)): 15; Plant response rating, Ducksalad (Flood) [17]: 25
CON=C(c1c(OC(C)=O)c(Cl)nn(C)c1=O)c1ccc(F)c2ccccc12 [Compound 190] | 0 | 0 | 10 | 60 | 0 | 20 | 10 | 20 | 30 | 20 | 10 | 30 | 10 | 20 | 90 | 100 | 0 | 0 | 30 | 30 | Ryegrass, Italian plant response rating (0 to 100 scale) ([10]; 125 g ai/ha): 60; Ryegrass, Italian plant response rating (0 to 100 scale) [10, 19]: 0; Barnyardgrass plant response rating (0 to 100 scale) ([11]; 125 g ai/ha): 50; Barnyardgrass plant response rating (0 to 100 scale) [11, 19]: 30; Foxtail, Giant plant response rating (0 to 100 scale) ([12]; 125 g ai/ha): 70; Foxtail, Giant plant response rating (0 to 100 scale) [12, 19]: 60; Kochia plant response rating (0 to 100 scale) (kochia (Bassia scoparia) [13]; 125 g ai/ha): 0; Kochia plant response rating (0 to 100 scale) (kochia (Bassia scoparia) [13]; [19]): 0; Pigweed plant response rating (0 to 100 scale) ([14]; 125 g ai/ha): 90; Pigweed plant response rating (0 to 100 scale) [14, 19]: 20; Plant response rating, Sedge, Umbrella (Flood) [15]: 0; Plant response rating, Barnyardgrass (Flood) [16]: 0; Plant response rating, Rice (Flood) (rice (Oryza sativa)): 0; Plant response rating, Ducksalad (Flood) [17]: 0

Reference: patent publication US20210045385A1, “PYRIDAZINONE-SUBSTITUTED KETOXIMES AS HERBICIDES” (FMC Corporation, priority 2018, published 2021)
